Data published in patent US8232274B2, “Pyridazinone derivatives useful as glucan synthase inhibitors” (Albany Molecular Research, Inc., priority 2007, dated 2012).

Legend:
glucan synthase [1] = target: T1, glucan synthase (Candida albicans, UniProt O13428); test: β(1,3) glucan synthase assay, C. albicans BWP17 membrane preparation (IC50); format: biochemical; settings: in vitro fungal enzyme activity assay, read-out: IC50 (μg/mL) Candida albicans (converted)
T1 construct: glucan synthase sources (2 μL permeabilized PM503 cells, or 3 μL membrane preparations from either PM503, BWP17, or ND158); endogenous in cells; host or cells: C. albicans strain BWP17, 100,000 g membrane fraction
T1 sequence (O13428 1-1897): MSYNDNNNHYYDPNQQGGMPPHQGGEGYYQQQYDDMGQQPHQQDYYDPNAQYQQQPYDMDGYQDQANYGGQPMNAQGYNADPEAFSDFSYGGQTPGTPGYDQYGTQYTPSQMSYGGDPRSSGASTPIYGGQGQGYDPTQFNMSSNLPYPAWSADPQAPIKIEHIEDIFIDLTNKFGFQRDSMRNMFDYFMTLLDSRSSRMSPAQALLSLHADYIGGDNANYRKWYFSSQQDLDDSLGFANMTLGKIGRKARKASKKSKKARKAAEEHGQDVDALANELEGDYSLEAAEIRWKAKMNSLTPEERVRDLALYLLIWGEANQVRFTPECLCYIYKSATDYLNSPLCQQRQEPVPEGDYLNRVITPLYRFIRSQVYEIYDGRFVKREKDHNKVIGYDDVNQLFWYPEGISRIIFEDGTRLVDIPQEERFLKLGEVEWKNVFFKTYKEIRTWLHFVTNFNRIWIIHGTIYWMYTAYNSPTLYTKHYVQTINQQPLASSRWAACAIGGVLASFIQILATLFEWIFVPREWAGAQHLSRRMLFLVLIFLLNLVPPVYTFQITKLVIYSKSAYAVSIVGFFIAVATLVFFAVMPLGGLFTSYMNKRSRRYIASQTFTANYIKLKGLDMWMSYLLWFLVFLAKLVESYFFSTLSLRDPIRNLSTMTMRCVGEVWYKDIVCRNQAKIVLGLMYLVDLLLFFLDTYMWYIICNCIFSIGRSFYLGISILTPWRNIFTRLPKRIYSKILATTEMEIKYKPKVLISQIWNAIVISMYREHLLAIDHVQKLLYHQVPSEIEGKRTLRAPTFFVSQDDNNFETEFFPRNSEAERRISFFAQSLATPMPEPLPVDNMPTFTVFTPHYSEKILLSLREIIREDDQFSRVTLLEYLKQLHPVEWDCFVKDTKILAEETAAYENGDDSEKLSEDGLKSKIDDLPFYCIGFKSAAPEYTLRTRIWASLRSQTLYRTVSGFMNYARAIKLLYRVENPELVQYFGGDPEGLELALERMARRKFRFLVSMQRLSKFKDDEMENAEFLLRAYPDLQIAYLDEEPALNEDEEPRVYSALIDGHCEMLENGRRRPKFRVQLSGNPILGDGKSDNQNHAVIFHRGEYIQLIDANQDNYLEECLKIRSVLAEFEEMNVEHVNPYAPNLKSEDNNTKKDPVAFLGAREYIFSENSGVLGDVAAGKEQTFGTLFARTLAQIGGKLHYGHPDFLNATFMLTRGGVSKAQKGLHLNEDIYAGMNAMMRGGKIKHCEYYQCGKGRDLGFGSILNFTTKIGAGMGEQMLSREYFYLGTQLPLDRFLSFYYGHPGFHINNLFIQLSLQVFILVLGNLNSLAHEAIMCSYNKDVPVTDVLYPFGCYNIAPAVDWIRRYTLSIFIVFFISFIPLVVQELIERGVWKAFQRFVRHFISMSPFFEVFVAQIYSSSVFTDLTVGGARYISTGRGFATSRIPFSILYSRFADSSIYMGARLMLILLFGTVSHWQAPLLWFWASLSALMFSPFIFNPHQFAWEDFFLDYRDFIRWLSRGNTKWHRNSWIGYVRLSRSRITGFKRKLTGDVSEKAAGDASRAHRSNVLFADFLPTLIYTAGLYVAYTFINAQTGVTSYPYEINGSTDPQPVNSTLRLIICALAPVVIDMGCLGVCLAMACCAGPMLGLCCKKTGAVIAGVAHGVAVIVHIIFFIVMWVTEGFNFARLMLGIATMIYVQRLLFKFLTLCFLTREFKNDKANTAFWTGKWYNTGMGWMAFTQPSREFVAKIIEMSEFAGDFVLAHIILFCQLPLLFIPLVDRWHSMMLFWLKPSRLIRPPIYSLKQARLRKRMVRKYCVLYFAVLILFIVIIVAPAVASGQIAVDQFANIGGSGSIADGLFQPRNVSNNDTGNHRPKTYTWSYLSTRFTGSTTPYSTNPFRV
T1 sequence (O42825 1-195 partner limits assumed): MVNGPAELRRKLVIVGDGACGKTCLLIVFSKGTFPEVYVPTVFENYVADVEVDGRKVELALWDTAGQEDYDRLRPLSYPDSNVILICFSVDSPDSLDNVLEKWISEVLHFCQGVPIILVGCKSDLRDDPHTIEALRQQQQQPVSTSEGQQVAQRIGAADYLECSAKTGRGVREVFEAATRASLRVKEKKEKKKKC
Procedure: (§1) β(1,3) Glucan Synthase Assay:
(§2) 2. Preparation of Membrane Fraction of Yeast Cells
(§3) The protocol was modified from Douglas et al. (Journal of Bacteriology, 176, 5686-5696, 1994). For the preparation of S. cerevisiae and C. albicans membrane fractions, 1 liter of YPD supplemented with 0.02 mg/mL adenine and 0.08 mg/mL uracil was inoculated with 10 mL starter culture of PM503 (OD600=4) or the C. albicans strain BWP17 (OD600=12) in the same medium and grown at 30° C. until OD600 reached about 1. A. fumigatus (stain ND158) membranes were prepared by first preparing a spore suspension from agar slants by adding 6 mL of sterile saline, 0.1% Tween-20 solution to each slant, and resuspending by pipetting and scraping. The spore suspensions were used to inoculate two 200 mL flasks containing Sabouraud dextrose broth media. Cultures were incubated at 37° C., 250 rpm for ˜8 hrs. All cells, S. cerevisiae, C. albicans or A. fumigatus were harvested by centrifugation at 5,300 g at 4° C. for 40 minutes. After washing with 100 mL of breakage buffer (0.1 M KPi, pH 7.0, 1 mM EDTA, 1 mM DTT), the cell pellet was resuspended in 50 ml ice-cold breakage buffer. The mixture was transferred to a bead-beater chamber packed in ice (BioSpec Products, Bartlesville, Okla.). To each 50 mL sample was added 50 g of acid-washed glass beads ([…], Sigma). Cells were disrupted using 12×20 second pulses with 2 min-cooling intervals. Cell debris was removed by centrifugation at 3,000 g for 20 minutes at 4° C., and the supernatant was collected and centrifuged at 100,000 g for 1 hour at 4° C. to pellet the membrane fraction. The pellet was resuspended in 5 mL of ice-cold breakage buffer containing 25% glycerol, homogenized with a Dounce tissue homogenizer and stored at −80° C. in small aliquots.
(§4) 3. Glucan Synthase Assay and Compound Screening
The assay was performed according to Mo et at (Journal of Biological Chemistry, 269, 31267-31274, 1994) and Taft et al. (The Journal of Antibiotics, 47, 1001-1009, 1994), in a 96-well Optiplate (PerkinElmer). To each well was added 3 μL 10× compound stock (in 100% DMSO), or 3 μL of 30 μg/mL caspofungin in 100% DMSO (as positive control), or 3 μL 100% DMSO (as negative control), followed by the addition of appropriate amount of glucan synthase sources (2 μL permeabilized PM503 cells, or 3 μL membrane preparations from either PM503, BWP17, or ND158). The reaction was initiated by adding 25 μL reaction buffer (0.6 mM UDP-Glucose 0.6 nCi [U-^14C]DUP-Glucose (327 mCi/mmol, Amersham Bioscience), 20 μM GTP-γ-S, 25 mM NaF, 7.5 mg/mL BSA, 8% glycerol in 75 mM Tris-HCl, pH 7.5). The plate was incubated on a shaker for 1.5 hour at room temperature before being quenched with 250 μL 1% TCA (Trichloroacetic Acid). The quenched reaction was mixed by pipetting, and immediately transferred to a 96-well filter plate (Glass fiber B on 0.65 μm hydrophilic durapore membrane, Millipore) pre-wetted with wash buffer (5% TCA, 60 mM NaPPi). The glucan product was retained on the filter membrane by applying vacuum to the plate using a MultiScreen Resist Vacuum Manifold (Millipore). The filter plate was further washed 4 times with 200 μL wash buffer. The plate was dried at 50° C. for 30 minutes. 100 μL of Microscint-0 (PerkinElmer) was added to each well, and plate was counted in a TopCount NXT plate reader (PerkinElmer).
Dose-response curves were plotted from inhibition data generated. IC50 was determined by fitting the CPM versus the Concentration of the test compound plot with the following equation (4-parameter logistic model, ID Business Solutions XLfit 4.2).

glucan synthase [2] = target: T2, glucan synthase (Saccharomyces cerevisiae, UniProt P38631); test: β(1,3) glucan synthase assay, S. cerevisiae PM503 permeabilized cells or membrane preparation (IC50); format: biochemical
T2 construct: glucan synthase sources (2 μL permeabilized PM503 cells, or 3 μL membrane preparations from either PM503, BWP17, or ND158); endogenous in cells; host or cells: S. cerevisiae strain PM503, permeabilized cells or 100,000 g membrane fraction
T2 sequence (P06780 1-206): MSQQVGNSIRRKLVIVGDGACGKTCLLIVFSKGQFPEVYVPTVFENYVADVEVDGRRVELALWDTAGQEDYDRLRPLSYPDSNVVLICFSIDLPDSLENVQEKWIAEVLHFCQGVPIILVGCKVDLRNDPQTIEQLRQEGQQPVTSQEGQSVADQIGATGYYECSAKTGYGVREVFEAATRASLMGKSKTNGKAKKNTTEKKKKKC
T2 sequence (P38631 whole entry): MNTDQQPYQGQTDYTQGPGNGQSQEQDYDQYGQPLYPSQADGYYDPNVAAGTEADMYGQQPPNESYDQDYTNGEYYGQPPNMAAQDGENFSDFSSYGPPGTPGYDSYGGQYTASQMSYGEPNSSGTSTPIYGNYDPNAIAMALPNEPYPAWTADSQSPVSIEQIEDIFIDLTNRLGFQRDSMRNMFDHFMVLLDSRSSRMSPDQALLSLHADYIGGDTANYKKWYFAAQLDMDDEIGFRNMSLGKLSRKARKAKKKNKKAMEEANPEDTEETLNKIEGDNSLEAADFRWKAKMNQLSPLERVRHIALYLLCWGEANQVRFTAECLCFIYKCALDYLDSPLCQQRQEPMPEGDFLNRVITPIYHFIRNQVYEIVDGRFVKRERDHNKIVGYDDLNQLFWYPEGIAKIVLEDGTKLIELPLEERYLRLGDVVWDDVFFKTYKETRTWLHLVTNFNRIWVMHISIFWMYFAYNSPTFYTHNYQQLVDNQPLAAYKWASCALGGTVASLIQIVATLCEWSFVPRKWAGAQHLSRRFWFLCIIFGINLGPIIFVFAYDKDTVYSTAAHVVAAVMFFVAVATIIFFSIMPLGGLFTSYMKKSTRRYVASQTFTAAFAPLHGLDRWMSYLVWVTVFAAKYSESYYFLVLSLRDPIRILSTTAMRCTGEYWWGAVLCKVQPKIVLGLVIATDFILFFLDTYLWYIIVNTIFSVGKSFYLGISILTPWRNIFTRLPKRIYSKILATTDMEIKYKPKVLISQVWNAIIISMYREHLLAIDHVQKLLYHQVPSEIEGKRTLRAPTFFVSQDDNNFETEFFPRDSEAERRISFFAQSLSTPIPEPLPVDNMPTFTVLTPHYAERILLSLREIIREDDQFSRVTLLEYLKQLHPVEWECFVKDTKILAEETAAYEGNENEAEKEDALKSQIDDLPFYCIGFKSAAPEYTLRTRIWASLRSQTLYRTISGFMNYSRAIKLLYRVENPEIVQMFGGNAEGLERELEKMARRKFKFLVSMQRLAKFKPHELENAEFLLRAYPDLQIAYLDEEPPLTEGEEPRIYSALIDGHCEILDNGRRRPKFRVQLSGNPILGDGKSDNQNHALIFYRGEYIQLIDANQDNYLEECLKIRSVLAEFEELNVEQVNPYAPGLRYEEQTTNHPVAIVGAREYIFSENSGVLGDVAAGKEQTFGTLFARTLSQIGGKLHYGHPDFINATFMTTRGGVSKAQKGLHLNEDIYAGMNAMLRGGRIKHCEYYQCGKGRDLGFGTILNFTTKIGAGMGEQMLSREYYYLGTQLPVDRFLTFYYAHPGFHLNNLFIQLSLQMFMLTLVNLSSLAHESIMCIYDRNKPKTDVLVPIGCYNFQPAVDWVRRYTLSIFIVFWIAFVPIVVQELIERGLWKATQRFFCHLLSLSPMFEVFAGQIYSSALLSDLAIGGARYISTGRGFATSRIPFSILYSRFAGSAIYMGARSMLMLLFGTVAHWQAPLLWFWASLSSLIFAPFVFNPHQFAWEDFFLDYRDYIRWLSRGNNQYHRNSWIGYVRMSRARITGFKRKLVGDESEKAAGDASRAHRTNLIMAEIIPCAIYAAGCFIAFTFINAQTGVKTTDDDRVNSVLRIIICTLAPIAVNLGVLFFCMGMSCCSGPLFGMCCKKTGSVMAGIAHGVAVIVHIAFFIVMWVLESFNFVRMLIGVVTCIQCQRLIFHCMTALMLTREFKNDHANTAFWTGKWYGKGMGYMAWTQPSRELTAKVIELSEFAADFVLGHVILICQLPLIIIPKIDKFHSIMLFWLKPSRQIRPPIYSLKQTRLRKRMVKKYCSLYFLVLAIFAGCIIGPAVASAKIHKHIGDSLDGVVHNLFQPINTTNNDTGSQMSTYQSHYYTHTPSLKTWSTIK
Procedure: as §1
1. Preparation of Permeabilized Saccharomyces cerevisiae Cells.
Permeabilization of yeast cells was performed according to Crotti et al. (Analytical Biochemistry, 292, 8-16, 2001) with some modifications. A 10 ml-starter culture of the S. cerevisiae strain in YPD medium (1% yeast extract, 2% bacto-peptone, 2% dextrose) with OD600=3-4 was used to inoculate 1 liter of YPD. The culture was grown at 30° C. until […]. Cells were collected by centrifugation (5,300 g for 15 min at 4° C.) and resuspended in buffer (40 mM EDTA, 100 mM β-mercaptoethanol) at 1 g of cell pellet/3.5 ml buffer. The cell suspension was shaken for 30 min at 30° C., followed by centrifugation at 12,000 g for 10 min at 4° C. The cell pellet was washed with 5 ml 0.8 M sorbitol and resuspended in 6.8 ml of 2.9 mM citric acid, 11.3 mM dibasic sodium phosphate, 1 mM EDTA, 0.8 M sorbitol, with constant shaking at 30)C for 30 min. After centrifugation at 12,000 g for […] at 4° C., the pellet was resuspended in 31.3 ml 50 mM Tris-HCl, pH 7.0, and incubated on ice for 5 min. The mixture was then centrifuged at 12,000 g for 10 min at 4 AC, and the pellet was resuspended in 1 ml of 50 mM Tris-HCl and 33% glycerol, pH 7.5. The permeabilized cell preparation was stored at […] in aliquots.
as §2, §3, §4
The assay was performed according to Mo et at (Journal of Biological Chemistry, 269, 31267-31274, 1994) and Taft et al. (The Journal of Antibiotics, 47, 1001-1009, 1994), in a 96-well Optiplate (PerkinElmer). To each well was added 3 μL 10× compound stock (in 100% DMSO), or 3 μL of 30 μg/mL caspofungin in 100% DMSO (as positive control), or 3 μL 100% DMSO (as negative control), followed by the addition of appropriate amount of glucan synthase sources (2 μL permeabilized PM503 cells, or 3 μL membrane preparations from either PM503, BWP17, or ND158). The reaction was initiated by adding 25 μL reaction buffer (0.6 mM UDP-Glucose 0.6 nCi [U-^14C]DUP-Glucose (327 mCi/mmol, Amersham Bioscience), 20 μM GTP-γ-S, 25 mM NaF, 7.5 mg/mL BSA, 8% glycerol in 75 mM Tris-HCl, pH 7.5). […]

N[C@@H](Cc1ccc(Cl)cc1)C(=O)N1CCN(c2cnn(-c3ccccc3)c(=O)c2Sc2ccc(F)cc2)CC1 [1Z]
IC50 (glucan synthase [1]): 17700 nM

CCCCCCCSc1c(N2CCN(S(=O)(=O)Cc3ccccc3)CC2)cnn(-c2ccccc2)c1=O [7Z]
IC50 (glucan synthase [1]): 2030 nM | IC50 (glucan synthase [2]): 629 nM

CCCCCCSc1c(N2CCN(S(C)(=O)=O)CC2)cnn(-c2cc(F)cc(F)c2)c1=O [11Z]
IC50 (glucan synthase [1]): 12700 nM | IC50 (glucan synthase [2]): 2470 nM

CC(C)S(=O)(=O)N1CCN(c2cnn(-c3cc(F)cc(F)c3)c(=O)c2Sc2ccccc2)CC1 [19Z]
IC50 (glucan synthase [1]): 3360 nM | IC50 (glucan synthase [2]): 160 nM

O=c1c(N2CCOCC2)c(N2CCN(S(=O)(=O)Cc3ccccc3)CC2)cnn1Cc1c(F)cccc1Cl [30Z]
IC50 (glucan synthase [1]): 16000 nM | IC50 (glucan synthase [2]): 712 nM

O=c1c(Nc2ccc(F)cc2)c(N2CCN(S(=O)(=O)Cc3ccccc3)CC2)cnn1-c1cccc(Cl)c1 [47Z]
IC50 (glucan synthase [1]): 415 nM | IC50 (glucan synthase [2]): 45.1 nM

O=c1c(N2CCCCC2)c(N2CCN(S(=O)(=O)Cc3ccccc3)CC2)cnn1-c1ccc(F)cc1 [61Z]
IC50 (glucan synthase [1]): 2540 nM | IC50 (glucan synthase [2]): 625 nM

N#Cc1cccc(-c2c(N3CCN(S(=O)(=O)Cc4ccccc4)CC3)cnn(-c3cc(F)cc(F)c3)c2=O)c1 [82Z]
IC50 (glucan synthase [1]): 822 nM | IC50 (glucan synthase [2]): 87.7 nM

O=c1c(-c2ccc(C3CCCCC3)cc2)c(N2CCN(S(=O)(=O)Cc3ccccc3)CC2)cnn1-c1cc(F)cc(F)c1 [96Z]
IC50 (glucan synthase [1]): 1550 nM | IC50 (glucan synthase [2]): 364 nM

Cc1ccc(Cc2c(N3CCN(S(=O)(=O)C(C)C)CC3)cnn(-c3cc(F)cc(F)c3)c2=O)cc1 [119Z]
IC50 (glucan synthase [1]): 1610 nM | IC50 (glucan synthase [2]): 125 nM

CCC1(COc2c(N3CCN(S(=O)(=O)Cc4ccc(N)cc4)CC3)cnn(-c3cc(F)cc(F)c3)c2=O)CC1 [186*]
IC50 (glucan synthase [1]): 214 nM | IC50 (glucan synthase [2]): 89.3 nM

CC(C)NC(=O)N1CCN(c2cnn(-c3cccc(F)c3)c(=O)c2OC2Cc3ccccc3C2)CC1 [197Z]
IC50 (glucan synthase [1]): 3870 nM | IC50 (glucan synthase [2]): 159 nM

O=C(NCc1ccccc1)N1CCN(c2cnn(-c3cccc(Cl)c3)c(=O)c2OC2CCCC2)CC1 [204Z]
IC50 (glucan synthase [1]): 68900 nM | IC50 (glucan synthase [2]): 203000 nM

O=c1c(OC2CCCC2)c(N2CCN(Cc3c(Cl)cccc3Cl)CC2)cnn1-c1cccc(Cl)c1 [208Z]
IC50 (glucan synthase [1]): 2620 nM | IC50 (glucan synthase [2]): 206 nM

CCOCCOc1c(N2CCN(Cc3c(Cl)cccc3Cl)CC2)cnn(-c2cc(Cl)cc(Cl)c2)c1=O [214Z]
IC50 (glucan synthase [1]): 489 nM | IC50 (glucan synthase [2]): 1310 nM

CCOCCOc1c(N2CCN(C(=O)CC)CC2)cnn(-c2cccc(C)c2)c1=O [227Z]
IC50 (glucan synthase [1]): 367000 nM | IC50 (glucan synthase [2]): 367000 nM

CCCCCCCCCC(=O)N1CCN(c2cnn(-c3ccccc3)c(=O)c2OCCCCCCC)CC1 [232Z]
IC50 (glucan synthase [1]): 15600 nM | IC50 (glucan synthase [2]): 3810 nM

CCOCCOc1c(N2CCN(c3ncc([N+](=O)[O-])s3)CC2)cnn(-c2cccc(C)c2)c1=O [240Z]
IC50 (glucan synthase [1]): 201000 nM | IC50 (glucan synthase [2]): 201000 nM

CCCCCCCOc1c(N2CCN(S(=O)(=O)CC)CC2)cnn(-c2ccccc2)c1=O [244Z]
IC50 (glucan synthase [1]): 886 nM | IC50 (glucan synthase [2]): 201 nM

CC1(COc2c(N3CCN(S(=O)(=O)Cc4ccc5ocnc5c4)CC3)cnn(-c3cc(F)cc(F)c3)c2=O)CC1 [270*]
IC50 (glucan synthase [1]): 35 nM | IC50 (glucan synthase [2]): 52.5 nM

CC1(COc2c(N3CCN(S(=O)(=O)Cc4ccc(I)cc4)CC3)cnn(-c3cccc(Cl)c3)c2=O)CC1 [312*, 2-(3-chlorophenyl)-5-(4-(4-iodobenzylsulfonyl)piperazin-1-yl)-4-((1-methylcyclopropyl)methoxy)pyridazin-3(2H)-one]
IC50 (glucan synthase [1]): 107 nM | IC50 (glucan synthase [2]): 91.6 nM

CC(C)S(=O)(=O)N1CCN(c2cnn(-c3cccc(F)c3)c(=O)c2OC2CCCCC2)CC1 [402Z]
IC50 (glucan synthase [1]): 794 nM | IC50 (glucan synthase [2]): 153 nM

O=c1c(OC2CCCC2)c(N2CCN(S(=O)(=O)Cc3cc(Cl)cc(Cl)c3)CC2)cnn1-c1cccc(Cl)c1 [553Z]
IC50 (glucan synthase [1]): 351 nM | IC50 (glucan synthase [2]): 184 nM

Nc1ccccc1CS(=O)(=O)N1CCN(c2cnn(-c3cc(F)cc(F)c3)c(=O)c2OC2CCCC2)CC1 [738Z]
IC50 (glucan synthase [1]): 128 nM | IC50 (glucan synthase [2]): 73.3 nM

CC1(COc2c(N3CCN(S(=O)(=O)Cc4ccc(N)cc4)CC3)cnn(-c3cccc(Cl)c3)c2=O)CC1 [745Z]
IC50 (glucan synthase [1]): 110 nM | IC50 (glucan synthase [2]): 73.5 nM

CC1(COc2c(N3CCN(S(=O)(=O)Cc4cccc(N)c4)CC3)cnn(-c3cccc(Cl)c3)c2=O)CC1 [755Z]
IC50 (glucan synthase [1]): 73.5 nM | IC50 (glucan synthase [2]): 91.9 nM

CC1(COc2c(N3CCN(S(=O)(=O)Cc4ccc(N)cc4)CC3)cnn(-c3cc(F)cc(F)c3)c2=O)CC1 [767Z]
IC50 (glucan synthase [1]): 238 nM | IC50 (glucan synthase [2]): 91.6 nM

CC(C)S(=O)(=O)N1CCN(c2cnn(-c3cccc(F)c3)c(=O)c2OCCCCCCC(C)(C)F)CC1 [801Z]
IC50 (glucan synthase [1]): 55.5 nM | IC50 (glucan synthase [2]): 18.5 nM

O=c1c(OC2CCCC2)c(N2CCN(S(=O)(=O)NCc3ccccc3)CC2)cnn1-c1cccc(Cl)c1 [808Z]
IC50 (glucan synthase [1]): 91.9 nM | IC50 (glucan synthase [2]): 55.1 nM

Nc1ccc(CS(=O)(=O)N2CCN(c3cnn(-c4cccc(Cl)c4)c(=O)c3OCC3(CF)CC3)CC2)cc1 [809Z]
IC50 (glucan synthase [1]): 196 nM | IC50 (glucan synthase [2]): 71.2 nM

Nc1ccc(CS(=O)(=O)N2CCN(c3cnn(-c4cc(F)cc(F)c4)c(=O)c3OCC3(CF)CC3)CC2)cc1 [932Z]
IC50 (glucan synthase [1]): 231 nM | IC50 (glucan synthase [2]): 71 nM

CC(Oc1c(N2CCN(S(=O)(=O)Cc3cccc(N)c3)CC2)cnn(-c2cc(F)cc(F)c2)c1=O)C(C)(C)C (centres unmarked) [971Zbb]
IC50 (glucan synthase [1]): 2850 nM | IC50 (glucan synthase [2]): 588 nM

CS(=O)(=O)N1CCN(c2cnn(-c3cccc(Cl)c3)c(=O)c2OC2CCc3ccccc3C2)CC1 (centres unmarked) [974Z]
IC50 (glucan synthase [1]): 641 nM | IC50 (glucan synthase [2]): 252 nM
